# Molecular target: T1, HNE (human neutrophil elastase) (Homo sapiens, UniProt P08246)
# T1 construct: purchased Elastin Products (Owensville, Mo., USA) SE563
# T1 sequence (P08246 30-267): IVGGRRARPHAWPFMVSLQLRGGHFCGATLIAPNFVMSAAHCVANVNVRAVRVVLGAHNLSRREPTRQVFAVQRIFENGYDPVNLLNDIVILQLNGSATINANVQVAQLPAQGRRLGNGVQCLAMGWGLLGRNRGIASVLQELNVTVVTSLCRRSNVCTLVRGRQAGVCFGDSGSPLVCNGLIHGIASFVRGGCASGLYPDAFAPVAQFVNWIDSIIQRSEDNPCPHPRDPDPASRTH
# Test: Elastase enzyme in-vitro inhibition assay
# Assay type: biochemical
# Conditions: HNE 20 nM, 15 min incubation at room temperature, substrate MeOSuc-AAPV-AMC 100 μM, PBS buffer
# Procedure: HNE were purchased from Elastin Products (Owensville, Mo., USA) with catalog number SE563. Fixed concentrations of HNE (20 nM) were incubated with various concentrations of inhibitors in PBS buffer in opaque 96-well plates. After 15 min incubation at room temperature, the corresponding fluorescent substrates MeOSuc-AAPV-AMC (Merck Millipore) were added to each well at final concentration 100 μM. Fluorescence was monitored on a Molecular Devices Spectramax fluorescence plate reader at 460 nm with excitation at 380 nm for 30 min. Residual enzyme activity was calculated using the slope of fluorescence increase in the first 10 min. Percentage of enzyme inhibition was plotted using GraphPad Prism 6 software (GraphPad Prism, La Jolla, Calif., USA). The IC50 value and Ki value was calculated using the Morrison tight-binding equation provided by the software.
row,Compound,IC50
1,Cc1c([S+]([O-])c2ccc(C#N)cc2)cc(C(=O)NCCOCCOCCOCCOCCNC(=O)NCCCCNC(=O)NCCOCCOCCOCCOCCNC(=O)c2cc([S+]([O-])c3ccc(C#N)cc3)c(C)n(-c3cccc(C(F)(F)F)c3)c2=O)c(=O)n1-c1cccc(C(F)(F)F)c1 (centres unmarked) [Compound 15],< 150 nM
2,Cc1c(-c2ccnn2-c2ccc(C#N)cc2)cc(C(=O)NCCOCCOCCNC(=O)NCCCCNC(=O)NCCOCCOCCNC(=O)c2cc(-c3ccnn3-c3ccc(C#N)cc3)c(C)n(-c3cccc(C(F)(F)F)c3)c2=O)c(=O)n1-c1cccc(C(F)(F)F)c1 [Compound 14],< 150 nM
3,Cc1c(-c2ccnn2-c2ccc(C#N)cc2)cc(C(=O)NCCOCCOCCOCCOCCNC(=O)CCC(=O)NCCOCCOCCOCCOCCNC(=O)c2cc(-c3ccnn3-c3ccc(C#N)cc3)c(C)n(-c3cccc(C(F)(F)F)c3)c2=O)c(=O)n1-c1cccc(C(F)(F)F)c1 [Compound 5],< 150 nM
4,Cc1c(-c2ccnn2C)cc(C(=O)NCCOCCOCCNC(=O)NCCCCNC(=O)NCCOCCOCCNC(=O)c2cc(-c3ccnn3C)c(C)n(-c3cccc(C(F)(F)F)c3)c2=O)c(=O)n1-c1cccc(C(F)(F)F)c1 [Compound 2],150 to 1000 nM
5,CC(C)C(NC(=O)[C@@H]1CCCN1C(=O)[C@@H](NC(=O)c1ccc(C(=O)NCCOCCOCCNC(=O)NCCCCNC(=O)NCCOCCOCCNC(=O)c2ccc(C(=O)N[C@H](C(=O)N3CCC[C@H]3C(=O)NC(C(=O)C(F)(F)F)C(C)C)C(C)C)cc2)cc1)C(C)C)C(=O)C(F)(F)F (some centres unmarked) [Compound 1],< 150 nM
6,Cc1c(-c2ccnn2-c2ccc(C#N)cc2)cc(C(=O)NCCOCCOCCOCCNC(=O)C(=O)NCCOCCOCCOCCNC(=O)c2cc(-c3ccnn3-c3ccc(C#N)cc3)c(C)n(-c3cccc(C(F)(F)F)c3)c2=O)c(=O)n1-c1cccc(C(F)(F)F)c1 [Compound 13],< 150 nM
7,Cc1c(-c2ccnn2-c2ccc(C#N)cc2)cc(C(=O)NCCOCCOCCOCCNC(=O)NCCOCCOCCOCCNC(=O)c2cc(-c3ccnn3-c3ccc(C#N)cc3)c(C)n(-c3cccc(C(F)(F)F)c3)c2=O)c(=O)n1-c1cccc(C(F)(F)F)c1 [Compound 10],< 150 nM
8,Cc1c(-c2ccnn2-c2ccc(C#N)cc2)cc(C(=O)NCCOCCOCCNC(=O)C(=O)NCCOCCOCCNC(=O)c2cc(-c3ccnn3-c3ccc(C#N)cc3)c(C)n(-c3cccc(C(F)(F)F)c3)c2=O)c(=O)n1-c1cccc(C(F)(F)F)c1 [Compound 9],< 150 nM
9,Cc1c(-c2ccnn2-c2ccc(C#N)cc2)cc(C(=O)NCCOCCOCCOCCOCCNC(=O)C(=O)NCCOCCOCCOCCOCCNC(=O)c2cc(-c3ccnn3-c3ccc(C#N)cc3)c(C)n(-c3cccc(C(F)(F)F)c3)c2=O)c(=O)n1-c1cccc(C(F)(F)F)c1 [Compound 7],150 to 1000 nM
10,Cc1c([S+]([O-])c2ccc(C#N)cc2)cc(C(=O)NCCOCCOCCNC(=O)C(=O)NCCOCCOCCNC(=O)c2cc([S+]([O-])c3ccc(C#N)cc3)c(C)n(-c3cccc(C(F)(F)F)c3)c2=O)c(=O)n1-c1cccc(C(F)(F)F)c1 (centres unmarked) [Compound 19],< 150 nM
11,Cc1c([S+]([O-])c2ccc(C#N)cc2)cc(C(=O)NCCOCCOCCNC(=O)NCCCCNC(=O)NCCOCCOCCNC(=O)c2cc([S+]([O-])c3ccc(C#N)cc3)c(C)n(-c3cccc(C(F)(F)F)c3)c2=O)c(=O)n1-c1cccc(C(F)(F)F)c1 (centres unmarked) [Compound 20],150 to 1000 nM
12,Cc1c(-c2ccnn2-c2ccc(C#N)cc2)cc(C(=O)NCCOCCOCCOCCOCCNC(=O)NCCOCCOCCOCCOCCNC(=O)c2cc(-c3ccnn3-c3ccc(C#N)cc3)c(C)n(-c3cccc(C(F)(F)F)c3)c2=O)c(=O)n1-c1cccc(C(F)(F)F)c1 [Compound 6],< 150 nM
13,Cc1c([S+]([O-])c2ccc(C#N)cc2)cc(C(=O)NCCOCCOCCOCCNC(=O)NCCCCNC(=O)NCCOCCOCCOCCNC(=O)c2cc([S+]([O-])c3ccc(C#N)cc3)c(C)n(-c3cccc(C(F)(F)F)c3)c2=O)c(=O)n1-c1cccc(C(F)(F)F)c1 (centres unmarked) [Compound 17],150 to 1000 nM
14,Cc1c(-c2ccnn2-c2ccc(C#N)cc2)cc(C(=O)NCCOCCOCCOCCOCCNC(=O)NCCCCNC(=O)NCCOCCOCCOCCOCCNC(=O)c2cc(-c3ccnn3-c3ccc(C#N)cc3)c(C)n(-c3cccc(C(F)(F)F)c3)c2=O)c(=O)n1-c1cccc(C(F)(F)F)c1 [Compound 4],< 150 nM
15,Cc1c([S+]([O-])c2ccc(C#N)cc2)cc(C(=O)NCCOCCOCCOCCNC(=O)CCC(=O)NCCOCCOCCOCCNC(=O)c2cc([S+]([O-])c3ccc(C#N)cc3)c(C)n(-c3cccc(C(F)(F)F)c3)c2=O)c(=O)n1-c1cccc(C(F)(F)F)c1 (centres unmarked) [Compound 18],< 150 nM
16,Cc1c(-c2ccnn2-c2ccc(C#N)cc2)cc(C(=O)NCCOCCOCCOCCNC(=O)NCCCCNC(=O)NCCOCCOCCOCCNC(=O)c2cc(-c3ccnn3-c3ccc(C#N)cc3)c(C)n(-c3cccc(C(F)(F)F)c3)c2=O)c(=O)n1-c1cccc(C(F)(F)F)c1 [Compound 11],150 to 1000 nM
17,Cc1c(-c2ccnn2-c2ccc(C#N)cc2)cc(C(=O)NCCOCCOCCOCCNC(=O)CCC(=O)NCCOCCOCCOCCNC(=O)c2cc(-c3ccnn3-c3ccc(C#N)cc3)c(C)n(-c3cccc(C(F)(F)F)c3)c2=O)c(=O)n1-c1cccc(C(F)(F)F)c1 [Compound 12],< 150 nM
18,Cc1c(-c2ccnn2-c2ccc(C#N)cc2)cc(C(=O)NCCOCCOCCNC(=O)NCCOCCOCCNC(=O)c2cc(-c3ccnn3-c3ccc(C#N)cc3)c(C)n(-c3cccc(C(F)(F)F)c3)c2=O)c(=O)n1-c1cccc(C(F)(F)F)c1 [Compound 3],< 150 nM
19,Cc1c(-c2ccnn2-c2ccc(C#N)cc2)cc(C(=O)NCCOCCOCCNC(=O)CCC(=O)NCCOCCOCCNC(=O)c2cc(-c3ccnn3-c3ccc(C#N)cc3)c(C)n(-c3cccc(C(F)(F)F)c3)c2=O)c(=O)n1-c1cccc(C(F)(F)F)c1 [Compound 8],< 150 nM
20,Cc1c([S+]([O-])c2ccc(C#N)cc2)cc(C(=O)NCCOCCOCCOCCOCCNC(=O)CCC(=O)NCCOCCOCCOCCOCCNC(=O)c2cc([S+]([O-])c3ccc(C#N)cc3)c(C)n(-c3cccc(C(F)(F)F)c3)c2=O)c(=O)n1-c1cccc(C(F)(F)F)c1 (centres unmarked) [Compound 16],< 150 nM

# Reference: US20170144998A1, “ELASTASE INHIBITORS” (The California Institute for Biomedical Research, priority 2014, published 2017)
